Literature values, collected in patent publication US12661328B2, “Methods of treating anti-NMDAR-associated neuropsychiatric disorders” (Vanderbilt University, priority 2018, dated 2026).

How the values were obtained:
[1] = test system: γ-aminobutyric acid (GABA), benzodiazepine, dopamine, adrenergic, histamine, or glycine receptors
[2] = test system: extrasynaptic NMDA receptors; details: Xia et al., 2010
[3] = test system: voltage-dependent calcium, sodium, or potassium channels

In the case of `CC12CC3CC(C)(C1)CC(N)(C3)C2` [Memantine, 1-amino-3,5-dimethyladamantane], the “affinity for GABA, benzodiazepine, dopamine, adrenergic, histamine, or glycine receptors” value [1] is given as “no affinity”, the “concentration range of relatively specific inhibition of extrasynaptic NMDA receptors” value [2] is given as “low micromolar range” and the “affinity for NMDA receptors” value (NMDA receptors) is given as “low to moderate-affinity”. The “affinity for voltage-dependent calcium, sodium, or potassium channels” value [3] was “no affinity”.
